We go through five molecules from patent EP0368410A2, “Optically active benzoxazines and bezothiazines and a process for their stereospecific preparation” (GIST-BROCADES N.V., priority 1988, dated 1990).

Values after ≈ are worked out from the molar mass of the structure shown. Where two headings read alike, the source gives them in different places.

Test [1] deals with Ps. aeruginosa. To be noted: bacterium 4 of Table II (Ps. aeruginosa); from EP 0165375; cited from earlier work.
Test [2] deals with Staph. aureus. To be noted: bacterium 1 of Table II (Staph. aureus); from EP 0165375; cited from earlier work.
Test [3] has as its system E. coli. The conditions noted are these: bacterium 2 of Table II (E. coli); from EP 0165375; cited from earlier work.
The conditions of test [4]: Gerster c.s., 25th Intersc. Conf. Antimicrob. Agents and Chemotherapy, 1985; cited from earlier work.
Test [5] concerns Ps. aeruginosa. As to the kind of experiment: Antibacterial activity, MIC and MBC (Table II). The conditions noted are these: assay in duplicate (two lines); for MBC: Minimum Bactericidal Concentration; for MIC: Minimum Inhibitory Concentration. The class given is cell-based. From the text: (§1) GBR 23790 is (S)-9-fluoro-3-methyl-10-(4-methyl-1-piperazinyl)-2,3-dihydro-7-oxo-7H-pyrido[1,2,3-de][1,4]-benzothiazine-6-carboxylic acid, which is S-ofloxacin, but with the ring oxygen atom substituted by a ring sulfur atom. • MIC = Minimum Inhibitory Concentration (mg/I) • MBC = Minimum Bactericidal Concentration (mg/I) Each assay has been carried out in duplicate. GBR 23790 in racemic form is known from EP 0165375 (compound (p) in Table I). Its MIC-values, are for bacteria 1, 2 and 4 in the above Table II, resp. 0.78, 0.78 and 50.

Test [6] relates to E. coli. As to the kind of experiment: Antibacterial activity, MIC and MBC (Table II). The class given is cell-based. To be noted: Escherichia coli, assay in duplicate (two lines); for MBC: Minimum Bactericidal Concentration; for MIC: Minimum Inhibitory Concentration.
Excerpt: as §1

Another test deals with Strep. faecalis. As to the kind of experiment: Antibacterial activity, MIC and MBC (Table II). The class given is cell-based. The conditions noted are these: Enterococcus faecalis, assay in duplicate (two lines); for MBC: Minimum Bactericidal Concentration; for MIC: Minimum Inhibitory Concentration.
Excerpt: as §1

In test [7] the test system is Staph. aureus. As to the kind of experiment: Antibacterial activity, MIC and MBC (Table II). The class given is cell-based. To be noted: Minimum Inhibitory Concentration, assay in duplicate (two lines).
Excerpt: as §1

Setting [8] is: Pseudomonas aeruginosa, read-out: MBC.

Consider `CC1CSc2c(N3CCN(C)CC3)c(F)cc3c(=O)c(C(=O)O)cn1c23` (racemic) [GBR 23790 in racemic form], for which the values for the MIC-values with Ps. aeruginosa [1], in the test on Staph. aureus [2] and in the test on E. coli [3] were 50 mg/I, 0.78 mg/I and 0.78 mg/I, respectively.
Consider `Cc1c(F)cc2c(=O)c(C(=O)O)cn3c2c1CCC3C` (single isomer, unassigned) [(R)-(+)-isomer, 6,7-dihydro-5,8-dimethyl-9-fluoro-1-oxo-1 H,5H-benzo[ij]quinolizine-2-carboxylic acid], for which the “antibacterial activity in vitro” value in test [4] is on record as “much less active”.
On to `Cc1c(F)cc2c(=O)c(C(=O)O)cn3c2c1CC[C@@H]3C` [(S)-(-)-isomer of 6,7-dihydro-5,8-dimethyl-9-fluoro-1-oxo-1 ] [6,7-dihydro-5,8-dimethyl-9-fluoro-1-oxo-1 H,5H-benzo[ij]quinolizine-2-carboxylic acid], for which the “antibacterial activity in vitro” value in test [4] was “potent antibacterial activity”.
Regarding `C[C@H]1COc2c(N3CCN(C)CC3)c(F)cc3c(=O)c(C(=O)O)cn1c23` [(S)-ofloxacin, (S)-(-)-9-Fluoro-2,3-dihydro-3-methyl-10-(4-methyl-1-piperazinyl)-7-oxo-7H-pyrido[1,2,3-de][i ,4]benzoxazine-6-carboxylic acid], the MBC stood at 1.25 mg/I against Ps. aeruginosa [5], 0.63 µg/mL (≈ 1.74 µM) in the test on Ps. aeruginosa [5] (setting [8]), 0.04 µg/mL (≈ 0.111 µM) in the test with E. coli [6] and 1.25 µg/mL (≈ 3.46 µM) in the test with Strep. faecalis. Besides, the MIC with Ps. aeruginosa [5] (Pseudomonas aeruginosa) is 0.63 µg/mL (≈ 1.74 µM); in the test on E. coli [6], 0.04 µg/mL (≈ 0.111 µM); with Strep. faecalis, 1.25 µg/mL (≈ 3.46 µM).
Regarding `C[C@H]1CSc2c(N3CCN(C)CC3)c(F)cc3c(=O)c(C(=O)O)cn1c23` [GBR 23790, (S)-9-fluoro-3-methyl-10-(4-methyl-1-piperazinyl)-2,3-dihydro-7-oxo-7H-pyrido[1,2,3-de][1,4]-benzothiazine-6-carboxylic acid], the MBC with Ps. aeruginosa [5] (setting [8]) is 2.5 µg/mL (≈ 6.62 µM); against E. coli [6], 0.08 µg/mL (≈ 0.212 µM); with Strep. faecalis it was 2.5 µg/mL (≈ 6.62 µM). Also, the MIC against Ps. aeruginosa [5] (Pseudomonas aeruginosa) is 1.25 µg/mL (≈ 3.31 µM); against Staph. aureus [7], 0.16 mg/I; with Staph. aureus [7] (Staphylococcus aureus, read-out: MIC) it was 0.08 µg/mL (≈ 0.212 µM); in the test on E. coli [6] it was 0.08 µg/mL (≈ 0.212 µM); against Strep. faecalis it was 1.25 µg/mL (≈ 3.31 µM).
